Assay results published in patent publication US20250152751A1, “RED-SHIFTED FLUOROPHORES AND METHODS OF USING THE SAME” (GEORGIA STATE UNIVERSITY RESEARCH FOUNDATION, INC., priority 2022, published 2025).

Experiment: Optical properties of the fluorophores measured in ethanol, compared to ICG
Assay type: physicochemical
Details: for Φ^a (%): compared to ICG
How it was run: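 Values cover absorption and emission maxima, Stokes shift, quantum yield and molar extinction coefficient. All were obtained for each fluorophore in ethanol, with a reference dye measured for comparison.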

SMILES	Stokes Shift (nm)	λabs (nm)	λem (nm)	ϵ (cm^−1 M^−1)	Φ^a (%)
CCN1C(=CC=C2CCCC(C=C(C#N)C(=O)O)=C2N2CCC(CO)CC2)C(C)(C)c2cc(Cl)ccc21 [Compound 83]	122	670	792	75,300 cm^−1 M^−1	17.4
CN1C(=CC=C2CCCC(C=C(C#N)C(=O)O)=C2Cl)C(C)(C)c2cc(Br)ccc21 [Compound 52]	16	790	806	153,600 cm^−1 M^−1	11.8
CCN1C(=CC=C2CC(C(C)(C)C)CC(C=C(C#N)C(=O)O)=C2Cl)C(C)(C)c2cc(Cl)ccc21 (centres unmarked) [Compound 62]	15	790	805	114,100 cm^−1 M^−1	11.5
CCN1C(=CC=C2CC(c3ccccc3)CC(C=C(C#N)C(=O)O)=C2Cl)C(C)(C)c2ccccc21 (centres unmarked) [Compound 66]	15	780	795	155,700 cm^−1 M^−1	12.4
CCN1C(=CC=C2CCCC(C=C(C#N)C#N)=C2Cl)C(C)(C)c2cc(Cl)ccc21 [Compound 75]	15	790	805	145,400 cm^−1 M^−1	11.5
CCCCN1C(=CC=C2CCCC(C=C(C#N)C#N)=C2Cl)C(C)(C)c2ccccc21 [Compound 72]	15	785	800	143,900 cm^−1 M^−1	12.1
CCCCN1/C(=C/C=C2\CCCC(/C=C(\C#N)C(=O)O)=C2Cl)Sc2ccccc21 [Compound 57]	14	800	814	198,700 cm^−1 M^−1	10.5
CCN1C(=CC=C2CC(C(C)(C)C)CC(C=C(C#N)C(=O)O)=C2Cl)C(C)(C)c2cc(F)ccc21 (centres unmarked) [Compound 59]	19	780	799	123,000 cm^−1 M^−1	12.5
CCCCN1/C(=C/C=C2\CCCC(/C=C(\C#N)C(=O)O)=C2Cl)C(C)(C)c2c1ccc1ccccc21 [Compound 56]	7	820	827	151,100 cm^−1 M^−1	9.6
CCCCN1C(=CC=C2CCCC(C=C(C#N)C(=O)O)=C2Cl)C(C)(C)c2cc(Cl)ccc21 [Compound 55]	13	795	808	115,500 cm^−1 M^−1	11.5
CN1C(=CC=C2CCCC(C=C(C#N)C(=O)O)=C2Cl)C(C)(C)c2cc(F)ccc21 [Compound 49]	15	780	795	195,100 cm^−1 M^−1	12.6
CCCCN1C(=CC=C2CCCC(C=C(C#N)C(=O)O)=C2Cl)C(C)(C)c2cc(F)ccc21 [Compound 51]	17	785	802	176,400 cm^−1 M^−1	11.9
CCCCN1/C(=C/C=C2\CC(C(C)(C)C)CC(/C=C(\C#N)C(=O)O)=C2Cl)Sc2ccccc21 (centres unmarked) [Compound 65]	12	800	812	192,000 cm^−1 M^−1	10.5
CCCCN1C(=CC=C2CC(C(C)(C)C)CC(C=C(C#N)C(=O)O)=C2Cl)C(C)(C)c2cc(F)ccc21 (centres unmarked) [Compound 60]	18	785	803	137,400 cm^−1 M^−1	12.6
CCN1C(=CC=C2CC(C(C)(C)C)CC(C=C(C#N)C(=O)O)=C2Cl)C(C)(C)c2cc(Br)ccc21 (centres unmarked) [Compound 61]	15	790	805	123,500 cm^−1 M^−1	11.4
CN1C(=CC=C2CCCC(C=C(C#N)C(=O)O)=C2N2CCC(CO)CC2)C(C)(C)c2cc(Br)ccc21 [Compound 81]	126	665	791	64,200 cm^−1 M^−1	18.3
CCN1C(=CC=C2CC(c3ccccc3)CC(C=C(C#N)C(=O)O)=C2Cl)C(C)(C)c2cc(F)ccc21 (centres unmarked) [Compound 67]	16	780	796	124,700 cm^−1 M^−1	12.3
CCN1C(=CC=C2CC(C(C)(C)C)CC(C=C(C#N)C(=O)O)=C2N2CCC(CO)CC2)C(C)(C)c2cc(Cl)ccc21 (centres unmarked) [Compound 85]	143	645	788	60,000 cm^−1 M^−1	19.9
CCCCN1C(=CC=C2CCCC(C=C(C#N)C(=O)O)=C2Cl)C(C)(C)c2ccccc21 [Compound 48]	17	785	802	181,400 cm^−1 M^−1	12.1
CCN1C(=CC=C2CCCC(C=C(C#N)C(=O)O)=C2Cl)C(C)(C)c2ccccc21 [Compound 47]	20	780	800	179,500 cm^−1 M^−1	12.3
CCCCN1C(=CC=C2CC(C(C)(C)C)CC(C=C(C#N)C(=O)O)=C2Cl)C(C)(C)c2c1ccc1ccccc21 (centres unmarked) [Compound 64]	8	820	828	146,300 cm^−1 M^−1	7.3
CN1C(=CC=C2CC(C(C)(C)C)CC(C=C(C#N)C(=O)O)=C2Cl)C(C)(C)c2c1ccc1ccccc21 (centres unmarked) [Compound 63]	6	815	821	167,100 cm^−1 M^−1	9.8
CCN1C(=CC=C2CCCC(C=C(C#N)C#N)=C2Cl)C(C)(C)c2ccccc21 [Compound 71]	17	780	797	144,100 cm^−1 M^−1	12.1
CCCCN1C(=CC=C2CCCC(C=C(C#N)C#N)=C2Cl)C(C)(C)c2cc(F)ccc21 [Compound 73]	17	785	802	168,800 cm^−1 M^−1	12.2
CCN1C(=CC=C2CCCC(C=C(C#N)C(=O)O)=C2Cl)C(C)(C)c2cc(Cl)ccc21 [Compound 54]	15	790	805	156,500 cm^−1 M^−1	12.0
CCN1C(=CC=C2CC(C(C)(C)C)CC(C=C(C#N)C(=O)O)=C2Cl)C(C)(C)c2ccccc21 (centres unmarked) [Compound 58]	17	780	797	138,200 cm^−1 M^−1	12.7
CCN1C(=CC=C2CC(c3ccccc3)CC(C=C(C#N)C(=O)O)=C2Cl)C(C)(C)c2cc(Cl)ccc21 (centres unmarked) [Compound 69]	11	790	801	136,500 cm^−1 M^−1	11.7
CCN1C(=CC=C2CCCC(C=C(C#N)C(=O)O)=C2Cl)C(C)(C)c2cc(F)ccc21 [Compound 50]	14	780	799	165,300 cm^−1 M^−1	12.2
